We go through 21 compounds from ChEMBL document CHEMBL4732245, “Synthesis and biological evaluation of novel 4,7-disubstituted coumarins as selective tumor-associated carbonic anhydrase IX and XII inhibitors” (Bioorg Med Chem Lett, 2021).

For orientation: pKi means the negative decadic logarithm of the Ki, by convention in mol/L.

The target of one test is Carbonic anhydrase 1 (Homo sapiens, UniProt P00915). Kind of test: Inhibition of recombinant human carbonic anhydrase 1 pre-incubated for 10 mins by stopped flow CO2 hydrase assay.
Another test has as its target Carbonic anhydrase 2 (Homo sapiens, UniProt P00918). Kind of test: Inhibition of recombinant human carbonic anhydrase 2 pre-incubated for 10 mins by stopped flow CO2 hydrase assay.
For test [1], the target named is T1, Carbonic anhydrase 9 (Homo sapiens, UniProt Q16790). Kind of test: Inhibition of recombinant human carbonic anhydrase 9 preincubated for 10 mins by stopped flow CO2 hydrase assay.
Test [2] addresses T1, Carbonic anhydrase 9. Kind of test: Inhibition of recombinant human carbonic anhydrase 9 preincubated for 6 hrs at 24 degC by stopped flow CO2 hydrase assay.
The target of another test is Carbonic anhydrase 12 (Homo sapiens, UniProt O43570). Kind of test: Inhibition of recombinant human carbonic anhydrase 12 preincubated for 6 hrs at 24 degC by stopped flow CO2 hydrase assay.

pKi: −log10 of the molar value.

Carbonic anhydrase 1, sequence (P00915 whole entry): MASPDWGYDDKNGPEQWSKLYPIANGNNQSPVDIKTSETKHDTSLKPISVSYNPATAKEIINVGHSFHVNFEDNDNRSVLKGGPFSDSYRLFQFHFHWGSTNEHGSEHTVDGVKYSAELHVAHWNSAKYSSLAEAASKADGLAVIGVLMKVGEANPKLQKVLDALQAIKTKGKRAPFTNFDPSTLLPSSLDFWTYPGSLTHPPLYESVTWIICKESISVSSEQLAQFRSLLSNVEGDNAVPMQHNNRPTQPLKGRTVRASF
Carbonic anhydrase 12, sequence (O43570 whole entry): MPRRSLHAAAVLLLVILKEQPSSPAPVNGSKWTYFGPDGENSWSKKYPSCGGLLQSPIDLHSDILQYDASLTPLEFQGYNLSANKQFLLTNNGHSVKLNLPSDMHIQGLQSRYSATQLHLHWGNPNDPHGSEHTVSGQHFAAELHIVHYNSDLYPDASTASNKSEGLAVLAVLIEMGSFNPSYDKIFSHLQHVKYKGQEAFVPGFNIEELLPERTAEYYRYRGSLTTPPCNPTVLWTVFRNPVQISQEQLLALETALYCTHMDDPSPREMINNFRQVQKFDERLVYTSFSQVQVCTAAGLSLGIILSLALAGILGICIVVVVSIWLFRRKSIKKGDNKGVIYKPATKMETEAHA

Regarding `COc1ccc(N2CCN(Cc3cc(=O)oc4cc(OCc5ccccc5[N+](=O)[O-])ccc34)CC2)cc1`, the figures for the pKi on Carbonic anhydrase 1, at Carbonic anhydrase 2 and at Carbonic anhydrase 9 [1] were under 4.00, under 4.00 and 5.27, respectively.
Regarding `COc1cccc(COc2ccc3c(CN4CCN(Cc5ccccc5)CC4)cc(=O)oc3c2)c1`, the pKi on Carbonic anhydrase 1 was under 4.00; at Carbonic anhydrase 2, under 4.00; on Carbonic anhydrase 9 [1], 5.31.
On to `COc1ccc(N2CCN(Cc3cc(=O)oc4cc(OCc5ccc(Br)cc5)ccc34)CC2)cc1`, for which the results for the pKi on Carbonic anhydrase 1, at Carbonic anhydrase 2 and at Carbonic anhydrase 9 [1] were under 4.00, under 4.00 and 6.05, respectively.
In the case of `O=c1cc(CN2CCN(Cc3ccccc3)CC2)c2ccc(OCc3cccc(Cl)c3)cc2o1`, the results for the pKi at Carbonic anhydrase 1, on Carbonic anhydrase 2 and at Carbonic anhydrase 9 [1] were under 4.00, under 4.00 and 5.34, respectively.
As to `COc1ccc(N2CCN(Cc3cc(=O)oc4cc(OCc5cccc(OC)c5)ccc34)CC2)cc1`, the pKi at Carbonic anhydrase 1 is under 4.00; on Carbonic anhydrase 2 it was under 4.00; on Carbonic anhydrase 9 [1], 5.59.
As for `COc1ccc(N2CCN(Cc3cc(=O)oc4cc(OCc5cccc(Br)c5)ccc34)CC2)cc1`, the results for the pKi on Carbonic anhydrase 1, at Carbonic anhydrase 2 and at Carbonic anhydrase 9 [1] were under 4.00, under 4.00 and 5.46, respectively.
For the compound `COc1ccc(N2CCN(Cc3cc(=O)oc4cc(OCc5ccc([N+](=O)[O-])cc5)ccc34)CC2)cc1`, the pKi at Carbonic anhydrase 1 was under 4.00; at Carbonic anhydrase 2 it was under 4.00; on Carbonic anhydrase 9 [1], 5.58.
With `COc1ccc(N2CCN(Cc3cc(=O)oc4cc(OCc5cccc(Cl)c5)ccc34)CC2)cc1`, the pKi on Carbonic anhydrase 1 was under 4.00; at Carbonic anhydrase 2 it was under 4.00; on Carbonic anhydrase 9 [1] it was 5.14.
In the case of `Cc1cc(C)cc(COc2ccc3c(CN4CCN(Cc5ccccc5)CC4)cc(=O)oc3c2)c1`, the pKi on Carbonic anhydrase 1 was under 4.00; on Carbonic anhydrase 2 it was under 4.00; on Carbonic anhydrase 9 [1] it was 6.11.
Turning to `O=c1cc(CN2CCN(Cc3ccccc3)CC2)c2ccc(OCc3cccc(Br)c3)cc2o1`, the pKi is under 4.00 on Carbonic anhydrase 1, under 4.00 at Carbonic anhydrase 2 and 6.07 on Carbonic anhydrase 9 [1].
With `O=c1cc(CN2CCN(Cc3ccccc3)CC2)c2ccc(OCc3cc(F)ccc3F)cc2o1`, the values for the pKi on Carbonic anhydrase 1, on Carbonic anhydrase 2 and at Carbonic anhydrase 9 [1] were under 4.00, under 4.00 and 5.35, respectively.
`COc1ccc(N2CCN(Cc3cc(=O)oc4cc(OCc5ccccc5)ccc34)CC2)cc1`: the pKi on Carbonic anhydrase 1 is under 4.00; at Carbonic anhydrase 2, under 4.00; on Carbonic anhydrase 9 [1], 5.26.
As for `N#Cc1ccc(Cn2cc(COc3ccc4c(CCl)cc(=O)oc4c3)nn2)cc1`, the pKi at Carbonic anhydrase 9 [2] is 7.49; at Carbonic anhydrase 12, 6.21.
With `COc1ccc(N2CCN(Cc3cc(=O)oc4cc(OCc5ccccc5F)ccc34)CC2)cc1`, the figures for the pKi on Carbonic anhydrase 1, at Carbonic anhydrase 2 and at Carbonic anhydrase 9 [1] were under 4.00, under 4.00 and 5.41, respectively.
For `O=c1cc(CN2CCN(Cc3ccccc3)CC2)c2ccc(OCc3ccccc3[N+](=O)[O-])cc2o1`, the pKi on Carbonic anhydrase 1 is under 4.00; at Carbonic anhydrase 2, under 4.00; at Carbonic anhydrase 9 [1], 6.03.
For the compound `O=c1cc(CN2CCN(Cc3ccccc3)CC2)c2ccc(OCc3ccccc3)cc2o1`, the pKi at Carbonic anhydrase 1 is under 4.00; at Carbonic anhydrase 2 it was under 4.00; on Carbonic anhydrase 9 [1], 5.31.
Consider `O=c1cc(CN2CCN(Cc3ccccc3)CC2)c2ccc(OCc3ccc(Br)cc3)cc2o1`, for which the negative-log Ki (pKi) at Carbonic anhydrase 1 and on Carbonic anhydrase 2 was under 4.00 each time.
Turning to `O=c1cc(CN2CCN(Cc3ccccc3)CC2)c2ccc(OCc3ccc([N+](=O)[O-])cc3)cc2o1`, the values for the pKi at Carbonic anhydrase 1, on Carbonic anhydrase 2 and on Carbonic anhydrase 9 [1] were under 4.00, under 4.00 and 5.50, respectively.
As for `COc1ccc(CSc2nnc(COc3ccc4c(C)cc(=O)oc4c3)o2)cc1`, the negative logarithm of the Ki (pKi) at Carbonic anhydrase 9 [1] is 5.63.
Regarding `COc1ccc(N2CCN(Cc3cc(=O)oc4cc(OCc5cc(C)cc(C)c5)ccc34)CC2)cc1`, the pKi on Carbonic anhydrase 1 was under 4.00; on Carbonic anhydrase 2, under 4.00; on Carbonic anhydrase 9 [1] it was 5.34.
On to `O=c1cc(CN2CCN(Cc3ccccc3)CC2)c2ccc(OCc3ccccc3F)cc2o1`, for which the pKi at Carbonic anhydrase 1 was under 4.00; on Carbonic anhydrase 2, under 4.00; at Carbonic anhydrase 9 [1], 6.04.
